The results in this text go back to ChEMBL document CHEMBL1201862, “PubChem BioAssay data set” (2004).

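Protocol summary: plate cells (96-well), add compound at 5 concentrations, incubate 48 h, interpolate endpoints linearly. GI50 is the concentration that inhibits growth by half.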 Activity calls are given as the source filed them. No stated cut-off is given here; in the data, active = GI50 up to about 1.1 µM and inactive = higher.

Among the test systems are HCC 2998; HCT-116; SNB-75; M14; LOX IMVI; UACC-257; UO-31; Hs-578T; HL-60; OVCAR-3; EKVX; K562; OVCAR-5; NCI-H460; MDA-N; HOP-62; RXF 393; MDA-MB-231; SK-MEL-28; CAKI-1.
Common to all, as to experiment: inhibition of tumour cell growth, NCI panel, 48 h

With `CC12CCC(=O)N1c1cncnc1N2` (stereo unspecified), the GI50 with HCC 2998, with HCT-116, with SNB-75, in the experiment on M14, in the experiment on LOX IMVI and in the experiment on UACC-257 was > 10 µM (inactive) throughout. The GI50 in the experiment with UO-31 is > 10 µM (inactive); with Hs-578T, > 10 µM (inactive); in the experiment with HL-60, 0.0374 µM (active); in the experiment with OVCAR-3, > 10 µM (inactive); in the experiment with EKVX it was > 10 µM (inactive); in the experiment with K562, > 10 µM (inactive). For the same compound, the GI50 in the experiment with OVCAR-5, with NCI-H460 and in the experiment with MDA-N was > 10 µM (inactive) throughout.

Regarding `Cc1nnc2sc(Cc3cnc(N)s3)nn12`, the GI50 in the experiment on HOP-62, in the experiment on HCC 2998, with HCT-116, in the experiment on SNB-75, in the experiment with M14 and in the experiment on RXF 393 was > 100 µM (inactive) throughout. Besides, the GI50 with UACC-257, in the experiment with UO-31, with Hs-578T, in the experiment on HL-60, in the experiment with EKVX and in the experiment on K562 was > 100 µM (inactive) throughout. Moreover, the GI50 with MDA-MB-231, in the experiment with OVCAR-5, in the experiment on SK-MEL-28 and with NCI-H460 was > 100 µM (inactive) each time.

In the case of `O=C(CC(=O)N1N=C(N2c3ccccc3Sc3ccccc32)CC1c1ccccc1)Nc1ccccc1Cl` (stereo unspecified), the GI50 in the experiment with HOP-62, in the experiment on HCC 2998, with HCT-116, in the experiment with SNB-75, in the experiment with M14 and with RXF 393 was > 100 µM (inactive) in each case. Further, the GI50 in the experiment with UACC-257, with UO-31, in the experiment on Hs-578T, in the experiment with HL-60, in the experiment on OVCAR-3 and in the experiment on EKVX was > 100 µM (inactive) in each case. In addition, the GI50 in the experiment with K562, with MDA-MB-231, with OVCAR-5, with SK-MEL-28, in the experiment on CAKI-1 and with NCI-H460 was > 100 µM (inactive) in each case.

Take `O=C(Nc1ccc(C(F)(F)F)cc1[N+](=O)[O-])c1cccnc1`: the GI50 was 54.5 µM (inactive) in the experiment with HOP-62; > 100 µM (inactive) in the experiment with HCC 2998; 7.24 µM (inactive) in the experiment on HCT-116; 3.72 µM (inactive) with SNB-75; 5.09 µM (inactive) in the experiment on M14; 7.31 µM (inactive) in the experiment with LOX IMVI. In addition, the GI50 is 5.71 µM (inactive) in the experiment with UACC-257; 8.85 µM (inactive) in the experiment on UO-31; 6.53 µM (inactive) with Hs-578T; 3.72 µM (inactive) in the experiment with HL-60; 2.41 µM (inactive) with OVCAR-3; 4.61 µM (inactive) in the experiment with EKVX. Besides, the GI50 in the experiment on K562 was 2.45 µM (inactive); in the experiment with MDA-MB-231, 17.4 µM (inactive); in the experiment on OVCAR-5 it was 73.5 µM (inactive); in the experiment with SK-MEL-28 it was 0.386 µM (active); with CAKI-1, 2.81 µM (inactive); in the experiment with NCI-H460 it was 3.15 µM (inactive).

With `Cc1cc(N=C2C=C(Br)C(=O)C(Br)=C2)cc(CN(CC(=O)O)CC(=O)O)c1O`, the GI50 in the experiment with HOP-62, in the experiment with HCC 2998, in the experiment with HCT-116, with SNB-75, with M14 and with RXF 393 was > 100 µM (inactive) each time. Further, the GI50 in the experiment on UACC-257, with UO-31, in the experiment on Hs-578T, in the experiment on HL-60, in the experiment with OVCAR-3 and in the experiment with EKVX was > 100 µM (inactive) in each case. The GI50 in the experiment on K562, with MDA-MB-231, in the experiment with OVCAR-5, in the experiment on SK-MEL-28, with CAKI-1 and with NCI-H460 was > 100 µM (inactive) in each case.

For `N#Cc1ccc(/C=N/NC(=O)CSCC(=O)N/N=C/c2ccc(C#N)cc2)cc1`, the GI50 with HOP-62 is > 100 µM (inactive); in the experiment with HCC 2998, > 100 µM (inactive); with HCT-116, > 100 µM (inactive); in the experiment with SNB-75 it was 26.3 µM (inactive); in the experiment with M14 it was > 100 µM (inactive); in the experiment with RXF 393, > 100 µM (inactive). In addition, the GI50 in the experiment with UACC-257, with UO-31, with Hs-578T, in the experiment with HL-60, with OVCAR-3 and in the experiment on EKVX was > 100 µM (inactive) in each case. Moreover, the GI50 is > 100 µM (inactive) in the experiment with K562; 29.1 µM (inactive) in the experiment on MDA-MB-231; > 100 µM (inactive) with OVCAR-5; > 100 µM (inactive) in the experiment with SK-MEL-28; > 100 µM (inactive) with CAKI-1; > 100 µM (inactive) with NCI-H460.

Consider `COc1cc2c(/C=C3/C(=O)Nc4ccc(Cl)cc43)c(Cl)[nH]c2cc1C`, for which the GI50 with HOP-62 was 0.439 µM (active); with HCT-116 it was 0.794 µM (active); with SNB-75, 0.215 µM (active); in the experiment with M14, 0.962 µM (active); with RXF 393, 0.375 µM (active); in the experiment with LOX IMVI it was 0.738 µM (active). For the same compound, the GI50 is 0.553 µM (active) in the experiment with UACC-257; 1.34 µM (inactive) in the experiment on UO-31; 0.327 µM (active) with Hs-578T; 0.366 µM (active) in the experiment on HL-60; 0.356 µM (active) in the experiment with OVCAR-3; 0.394 µM (active) in the experiment on K562. The GI50 in the experiment with MDA-MB-231 was 0.74 µM (active); with OVCAR-5 it was 3.27 µM (inactive); in the experiment on SK-MEL-28, 0.26 µM (active); in the experiment with CAKI-1, 0.39 µM (active); in the experiment with NCI-H460, 0.524 µM (active).

Consider `O=S(=O)(O)c1cc(/N=N/c2cccc3ccccc23)c(O)c2ncccc12`, for which the GI50 in the experiment with HOP-62 is > 100 µM (inactive); with HCT-116 it was 34.9 µM (inactive); in the experiment with SNB-75 it was 60.3 µM (inactive); in the experiment with M14 it was 47.8 µM (inactive); in the experiment on RXF 393 it was 62.8 µM (inactive); in the experiment with LOX IMVI, 60.8 µM (inactive). Also, the GI50 in the experiment on UACC-257 is 64.4 µM (inactive); in the experiment on HL-60, 37.8 µM (inactive); with OVCAR-3, 22.5 µM (inactive); in the experiment with EKVX, 30.5 µM (inactive); in the experiment with K562 it was 32.1 µM (inactive); in the experiment on MDA-MB-231 it was > 100 µM (inactive). Also, the GI50 in the experiment with OVCAR-5 is 72.8 µM (inactive); in the experiment with SK-MEL-28, > 100 µM (inactive); with CAKI-1, > 100 µM (inactive); with NCI-H460 it was 25.4 µM (inactive); in the experiment with MDA-N, 58.3 µM (inactive).

In the case of `COc1nc2c(c(=O)n1C)N=C(c1ccc(Cl)cc1)CC(c1ccccc1)N2` (stereo unspecified), the GI50 is 32.1 µM (inactive) with HOP-62; 17.7 µM (inactive) with HCC 2998; 22.7 µM (inactive) in the experiment with HCT-116; 14.3 µM (inactive) with SNB-75; 32.9 µM (inactive) in the experiment on M14; 22.5 µM (inactive) in the experiment with RXF 393. For the same compound, the GI50 with LOX IMVI was 21.2 µM (inactive); in the experiment with UACC-257 it was 26.5 µM (inactive); with UO-31, 33.5 µM (inactive); in the experiment with OVCAR-3 it was 35.1 µM (inactive); in the experiment on EKVX, 21.5 µM (inactive); in the experiment on K562, 6.78 µM (inactive). Also, the GI50 in the experiment with MDA-MB-231 is 23.3 µM (inactive); in the experiment on OVCAR-5, 25.6 µM (inactive); in the experiment on SK-MEL-28, 54.1 µM (inactive); with CAKI-1, 26.9 µM (inactive); in the experiment on NCI-H460, 14.4 µM (inactive); with MDA-N, 18.8 µM (inactive).

Consider `O=C1c2cccc3cc([N+](=O)[O-])cc(c23)C(=O)N1Nc1ccc([N+](=O)[O-])cc1[N+](=O)[O-]`, for which the GI50 with HOP-62 is 14 µM (inactive); in the experiment with HCC 2998 it was 14 µM (inactive); in the experiment with HCT-116 it was 10.9 µM (inactive); in the experiment on SNB-75, 18.2 µM (inactive); in the experiment on M14, 24.7 µM (inactive); in the experiment on RXF 393, 23.3 µM (inactive). For the same compound, the GI50 with LOX IMVI is 10.5 µM (inactive); with UACC-257, 13.3 µM (inactive); in the experiment with UO-31, 12.1 µM (inactive); in the experiment on Hs-578T, > 31.6 µM (inactive); in the experiment on HL-60, 4.23 µM (inactive); in the experiment with OVCAR-3, 22.3 µM (inactive). The GI50 with EKVX is 24.4 µM (inactive); in the experiment with K562, 4.29 µM (inactive); in the experiment on MDA-MB-231, 16.8 µM (inactive); in the experiment on OVCAR-5, > 70.5 µM (inactive); with SK-MEL-28, 11.9 µM (inactive); in the experiment on CAKI-1, 15.1 µM (inactive). Further, the GI50 with NCI-H460 is 7.41 µM (inactive).

Consider `CCCNC(=O)Cn1c2c(c3ccccc31)CCCC2`, for which the GI50 in the experiment on HOP-62 is 78 µM (inactive); with HCC 2998 it was 75.5 µM (inactive); in the experiment on HCT-116, 29.2 µM (inactive); in the experiment with M14, > 100 µM (inactive); in the experiment with LOX IMVI, > 100 µM (inactive); in the experiment with UACC-257 it was 94 µM (inactive). Further, the GI50 is 20 µM (inactive) in the experiment with UO-31; 23.1 µM (inactive) in the experiment with Hs-578T; 29.6 µM (inactive) in the experiment with HL-60; 36.9 µM (inactive) in the experiment on OVCAR-3; 56.6 µM (inactive) in the experiment on EKVX; 73.1 µM (inactive) in the experiment with K562. Moreover, the GI50 is > 100 µM (inactive) in the experiment on OVCAR-5; 88.9 µM (inactive) in the experiment with SK-MEL-28; 77.1 µM (inactive) in the experiment on CAKI-1; 58.2 µM (inactive) in the experiment with NCI-H460; 68.7 µM (inactive) in the experiment on MDA-N.
